In US9150577B2, “Heterocyclic compounds containing an indole core” (Boehringer Ingelheim International GmbH, priority 2009, dated 2015) one finds IC50 data, which are given here for 33 molecules.

This assay addresses Human RSK2 (Homo sapiens (Human), UniProt P51812). Put plainly: Human RSK2 assay (Kinase Glo Plus, residual ATP).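 Note: recombinant human RSK2 phosphorylating a substrate peptide, 90 min at 28 °C, leftover ATP read by luminescence, RLU scaled between no-kinase background and uninhibited kinase controls, 4-parameter fit.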 Format: biochemical.

Human RSK2, sequence (P51812 whole entry): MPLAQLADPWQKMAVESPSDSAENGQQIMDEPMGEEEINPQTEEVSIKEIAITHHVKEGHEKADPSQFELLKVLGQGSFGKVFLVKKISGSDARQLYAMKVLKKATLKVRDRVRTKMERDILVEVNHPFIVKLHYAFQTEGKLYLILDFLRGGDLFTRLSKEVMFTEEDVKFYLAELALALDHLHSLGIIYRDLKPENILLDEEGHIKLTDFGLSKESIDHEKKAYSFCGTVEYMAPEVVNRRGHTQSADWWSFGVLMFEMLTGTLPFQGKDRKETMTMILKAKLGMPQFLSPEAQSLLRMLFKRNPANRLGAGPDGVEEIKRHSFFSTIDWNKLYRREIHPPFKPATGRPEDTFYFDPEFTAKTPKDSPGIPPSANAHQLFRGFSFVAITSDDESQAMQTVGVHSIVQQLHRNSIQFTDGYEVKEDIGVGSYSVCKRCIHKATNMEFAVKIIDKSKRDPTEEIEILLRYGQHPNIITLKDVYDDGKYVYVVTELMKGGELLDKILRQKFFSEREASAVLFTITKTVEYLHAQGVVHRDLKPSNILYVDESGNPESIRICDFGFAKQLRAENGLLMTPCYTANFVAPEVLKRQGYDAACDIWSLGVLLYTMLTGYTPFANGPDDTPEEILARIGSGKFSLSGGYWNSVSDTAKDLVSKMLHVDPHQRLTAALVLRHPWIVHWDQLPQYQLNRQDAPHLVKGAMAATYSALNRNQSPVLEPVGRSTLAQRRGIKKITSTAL

Regarding `Cc1cc(NC(=O)c2ccc3cc4n(c3c2)CCCNC4=O)n[nH]1` [Example 219, N-(5-methyl-1H-pyrazol-3-yl)-1-oxo-2,3,4,5-tetrahydro-1H-[1,4]diazepino[1,2-a]indole-8-carboxamide], the IC50 was found to be 68 nM.
Turning to `C[C@H]1CNC(=O)c2cc3ccc(C(=O)Nc4cnn(Cc5ccccc5)c4)cc3n21` [Example 133, (4S)-N-(1-benzyl-1H-pyrazol-4-yl)-4-methyl-1-oxo-1,2,3,4-tetrahydropyrazino[1,2-a]indole-7-carboxamide], the IC50 turned out to be 17.5 nM.
`Cc1cc(NC(=O)c2ccc3cc4n(c3c2)C(C)(C)CNC4=O)no1` [Example 126, 4,4-dimethyl-N-(5-methyl-1,2-oxazol-3-yl)-1-oxo-1,2,3,4-tetrahydropyrazino[1,2-a]indole-7-carboxamide]: the IC50 was determined as 36 nM.
The figure for `Cc1cc(NC(=O)c2ccc3cc4n(c3c2)[C@H](C)CCNC4=O)no1` [Example 225, (5R)-5-methyl-N-(5-methyl-1,2-oxazol-3-yl)-1-oxo-2,3,4,5-tetrahydro-1H-[1,4]diazepino[1,2-a]indole-8-carboxamide] is 12 nM; for `Cc1nc2ccc(NC(=O)c3ccc4cc5n(c4c3)CCCNC5=O)cc2s1` [Example 205, N-(2-methyl-1,3-benzothiazol-6-yl)-1-oxo-2,3,4,5-tetrahydro-1H-[1,4]diazepino[1,2-a]indole-8-carboxamide] it is 10 nM.
On to `Cn1c(NC(=O)c2ccc3cc4n(c3c2)CCCNC4=O)nc2cc(Cl)ccc21` [Example 49, N-(5-chloro-1-methyl-1H-benzimidazol-2-yl)-1-oxo-2,3,4,5-tetrahydro-1H-[1,4]diazepino[1,2-a]indole-8-carboxamide], for which the IC50 is 26 nM.
Consider `CC1CNC(=O)c2cc3ccc(C(=O)Nc4nc5ccccc5n4C)cc3n2C1` (stereo not drawn) [Example 62, 4-methyl-N-(1-methyl-1H-benzimidazol-2-yl)-1-oxo-2,3,4,5-tetrahydro-1H-[1,4]diazepino[1,2-a]indole-8-carboxamide], for which the IC50 was determined as 8.2 nM.
For the molecule `CC(C)(C)n1cc(NC(=O)c2ccc3cc4n(c3c2)CCCNC4=O)cn1` [Example 191, N-(1-tert-butyl-1H-pyrazol-4-yl)-1-oxo-2,3,4,5-tetrahydro-1H-[1,4]diazepino[1,2-a]indole-8-carboxamide], the IC50 worked out at 48 nM.
Regarding `Cc1nn(C)c2ncc(NC(=O)c3ccc4cc5n(c4c3)CCCNC5=O)cc12` [Example 189, N-(1,3-dimethyl-1H-pyrazolo[3,4-b]pyridin-5-yl)-1-oxo-2,3,4,5-tetrahydro-1H-[1,4]diazepino[1,2-a]indole-8-carboxamide], the IC50 stood at 1300 nM.
The figure for `O=C(Nc1ccn(Cc2ccc(F)cc2)n1)c1ccc2cc3n(c2c1)CCCNC3=O` [Example 12, N-[1-(4-fluorobenzyl)-1H-pyrazol-3-yl]-1-oxo-2,3,4,5-tetrahydro-1H-[1,4]diazepino[1,2-a]indole-8-carboxamide] is 220 nM; for `O=C(Nc1nc2ccccc2[nH]1)c1ccc2cc3n(c2c1)CCCNC3=O` [Example 55, N-(1H-benzimidazol-2-yl)-1-oxo-2,3,4,5-tetrahydro-1H-[1,4]diazepino[1,2-a]indole-8-carboxamide] it is 4.4 nM.
In the case of `O=C(Nc1cnn(-c2ccccc2)c1)c1ccc2cc3n(c2c1)CCCNC3=O` [Example 192, 1-oxo-N-(1-phenyl-1H-pyrazol-4-yl)-2,3,4,5-tetrahydro-1H-[1,4]diazepino[1,2-a]indole-8-carboxamide] it was 18 nM; in that of `CN(C)CCn1c(NC(=O)c2ccc3cc4n(c3c2)CCCNC4=O)nc2ccccc21` [Example 103, N-{1-[2-(dimethylamino)ethyl]-1H-benzimidazol-2-yl}-1-oxo-2,3,4,5-tetrahydro-1H-[1,4]diazepino[1,2-a]indole-8-carboxamide], 23 nM.
Take `C[C@H]1CNC(=O)c2cc3ccc(C(=O)Nc4cccnc4)cc3n21` [Example 155, (4S)-4-methyl-1-oxo-N-(pyridin-3-yl)-1,2,3,4-tetrahydropyrazino[1,2-a]indole-7-carboxamide]: the IC50 turned out to be 2300 nM.
In the case of `CC(C)n1c(NC(=O)c2ccc3cc4n(c3c2)[C@@H](C)[C@@H](C)CNC4=O)nc2ccccc21` (relative stereo) [Example 70, cis-4,5-dimethyl-1-oxo-N-[1-(propan-2-yl)-1H-benzimidazol-2-yl]-2,3,4,5-tetrahydro-1H-[1,4]diazepino[1,2-a]indole-8-carboxamide], the IC50 was 1.8 nM.
The figure for `CC(C)CCn1cc(NC(=O)c2ccc3cc4n(c3c2)CCCNC4=O)cn1` [Example 35, N-[1-(3-methylbutyl)-1H-pyrazol-4-yl]-1-oxo-2,3,4,5-tetrahydro-1H-[1,4]diazepino[1,2-a]indole-8-carboxamide] is 11 nM; for `CN(C)CCCn1c(NC(=O)c2ccc3cc4n(c3c2)CC2(CC2)CNC4=O)nc2ccccc21` [Example 124, N-{1-[3-(dimethylamino)propyl]-1H-benzimidazol-2-yl}-1′-oxo-2′,3′-dihydro-1′H-spiro[cyclopropane-1,4′-[1,4]diazepino[1,2-a]indole]-8′-carboxamide] it is 9.25 nM; for `CN1CCC(Cn2c(NC(=O)c3ccc4cc5n(c4c3)CCCNC5=O)nc3ccccc32)CC1` [Example 88, N-{1-[(1-methylpiperidin-4-yl)methyl]-1H-benzimidazol-2-yl}-1-oxo-2,3,4,5-tetrahydro-1H-[1,4]diazepino[1,2-a]indole-8-carboxamide] it is 21 nM.
`CN(C)CCCn1c(NC(=O)c2ccc3cc4n(c3c2)CC(F)(F)CNC4=O)nc2ccccc21` [Example 121, N-{1-[3-(dimethylamino)propyl]-1H-benzimidazol-2-yl}-4,4-difluoro-1-oxo-2,3,4,5-tetrahydro-1H-[1,4]diazepino[1,2-a]indole-8-carboxamide]: the IC50 was determined as 23 nM.
Regarding `O=C(Nc1nc2cc(Cl)cc(CN3CCOCC3)c2[nH]1)c1ccc2cc3n(c2c1)CCCNC3=O` [Example 46, N-[5-chloro-7-(morpholin-4-ylmethyl)-1H-benzimidazol-2-yl]-1-oxo-2,3,4,5-tetrahydro-1H-[1,4]diazepino[1,2-a]indole-8-carboxamide], the half-inhibitory concentration (IC50) came to 8.7 nM.
As to `CC1CNC(=O)c2cc3ccc(C(=O)Nc4cn[nH]c4)cc3n2C1` (stereo not drawn) [Example 17, 4-methyl-1-oxo-N-(1H-pyrazol-4-yl)-2,3,4,5-tetrahydro-1H-[1,4]diazepino[1,2-a]indole-8-carboxamide], the IC50 was 145 nM.
In the case of `O=C(Nc1nc2ccccc2o1)c1ccc2cc3n(c2c1)CCCNC3=O` [Example 112, N-(1,3-benzoxazol-2-yl)-1-oxo-2,3,4,5-tetrahydro-1H-[1,4]diazepino[1,2-a]indole-8-carboxamide] it was 370 nM.
As for `CC1(C)CNC(=O)c2cc3ccc(C(=O)Nc4cccnc4)cc3n2C1` [Example 9, 4,4-dimethyl-1-oxo-N-(pyridin-3-yl)-2,3,4,5-tetrahydro-1H-[1,4]diazepino[1,2-a]indole-8-carboxamide], the IC50 was found to be 4600 nM.
As to `Cc1cc(NC(=O)c2ccc3cc4n(c3c2)[C@@H](C)CCNC4=O)no1` [Example 173, (5S)-5-methyl-N-(5-methyl-1,2-oxazol-3-yl)-1-oxo-2,3,4,5-tetrahydro-1H-[1,4]diazepino[1,2-a]indole-8-carboxamide], the IC50 was found to be 1200 nM.
Consider `C[C@@H]1CNC(=O)c2cc3ccc(C(=O)Nc4nc5ccccc5n4CCCN(C)C)cc3n21` [Example 129, (4R)-N-{1-[3-(dimethylamino)propyl]-1H-benzimidazol-2-yl}-4-methyl-1-oxo-1,2,3,4-tetrahydropyrazino[1,2-a]indole-7-carboxamide], for which the IC50 turned out to be 0.7 nM.
On to `C[C@@H]1NC(=O)c2cc3ccc(C(=O)Nc4cnn(Cc5ccccc5)c4)cc3n2[C@H]1C` (relative stereo) [Example 30, N-(1-benzyl-1H-pyrazol-4-yl)-trans-3,4-dimethyl-1-oxo-1,2,3,4-tetrahydropyrazino[1,2-a]indole-7-carboxamide], for which the IC50 amounted to 10 nM.
Regarding `CC(C)(C)c1cc(NC(=O)c2ccc3cc4n(c3c2)CCCNC4=O)on1` [Example 195, N-(3-tert-butyl-1,2-oxazol-5-yl)-1-oxo-2,3,4,5-tetrahydro-1H-[1,4]diazepino[1,2-a]indole-8-carboxamide], the IC50 was determined as 44 nM.
`O=C(Nc1cnn(Cc2ccccc2)c1)c1ccc2cc3n(c2c1)CC(F)(F)CNC3=O` [Example 115, N-(1-benzyl-1H-pyrazol-4-yl)-4,4-difluoro-1-oxo-2,3,4,5-tetrahydro-1H-[1,4]diazepino[1,2-a]indole-8-carboxamide]: the IC50 was 32 nM.
As to `O=C(Nc1nc2cc(F)ccc2[nH]1)c1ccc2cc3n(c2c1)CCCNC3=O` [Example 51, N-(5-fluoro-1H-benzimidazol-2-yl)-1-oxo-2,3,4,5-tetrahydro-1H-[1,4]diazepino[1,2-a]indole-8-carboxamide], the IC50 amounted to 5.2 nM.
Consider `CC1CNC(=O)c2cc3ccc(C(=O)Nc4cnn(Cc5ccccc5)c4)cc3n2C1` (stereo not drawn) [Example 135, N-(1-benzyl-1H-pyrazol-4-yl)-4-methyl-1-oxo-2,3,4,5-tetrahydro-1H-[1,4]diazepino[1,2-a]indole-8-carboxamide], for which the IC50 was determined as 7.6 nM.
Turning to `CC1(C)CNC(=O)c2cc3ccc(C(=O)Nc4ccccc4C(N)=O)cc3n21` [Example 221, N-(2-carbamoylphenyl)-4,4-dimethyl-1-oxo-1,2,3,4-tetrahydropyrazino[1,2-a]indole-7-carboxamide], the IC50 is 8.2 nM.
For the molecule `CC(C)(O)Cn1c(NC(=O)c2ccc3cc4n(c3c2)CCCNC4=O)nc2ccccc21` [Example 85, N-[1-(2-hydroxy-2-methylpropyl)-1H-benzimidazol-2-yl]-1-oxo-2,3,4,5-tetrahydro-1H-[1,4]diazepino[1,2-a]indole-8-carboxamide], the IC50 came to 5.4 nM.
For `CN1CCC(n2c(NC(=O)c3ccc4cc5n(c4c3)CCCNC5=O)nc3ccccc32)CC1` [Example 77, N-[1-(1-methylpiperidin-4-yl)-1H-benzimidazol-2-yl]-1-oxo-2,3,4,5-tetrahydro-1H-[1,4]diazepino[1,2-a]indole-8-carboxamide], the IC50 is 14 nM.

The term IC50 denotes the point on the concentration scale where inhibition reaches its midpoint.
